The structures appear in SMILES notation.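 Cells were grown in 96-well plates and exposed to each compound for 48 hours at five concentrations; endpoints were interpolated linearly between bracketing concentrations, or set to the highest concentration if not reached. Here, GI50 denotes the concentration required for 50% inhibition of growth. The concentration for full growth arrest is given as TGI.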

One assay relates to SR leukemia. Put plainly: NCI-60 cell line screen, 48 h.
As to `CCCCCCCC(=O)SCC/C=C/[C@@H]1CC(=O)NCc2cc(ccn2)C2=N[C@@](C)(CS2)C(=O)N[C@@H](C(C)C)C(=O)O1`, the GI50 was 0.00845 µM and the TGI was over 33.3 µM.

Compound `CSc1nc(NC2OCC(OC(C)=O)C(OC(C)=O)C2OC(C)=O)c(N=CC=Nc2c(NC3OCC(OC(C)=O)C(OC(C)=O)C3OC(C)=O)nc(SC)[nH]c2=O)c(=O)[nH]1` (centres undefined) came in with a TGI of over 100 µM.

In turn, `COc1cc(OC)cc(-c2cc(=O)c3c(OC)c(OC)c(OC)c(OC)c3o2)c1` displayed a TGI of over 100 µM.

In the case of `O=C1OC(O)[C@@H]2[C@H]1[C@H]1CC[C@@H]2O1` (some centres undefined), the GI50 is over 100 µM and the TGI is over 100 µM.

In turn, `COC(=O)C1=C(C)NC(C)=C(C(=O)OCCCN2CCC(c3ccccc3)(c3ccccc3)CC2)C1c1cccc([N+](=O)[O-])c1` (centres undefined) returned a TGI of 4.5 µM.

Regarding `COc1ccc([C@H]2[C@@H](F)C(=O)N2c2cc(OC)c(OC)c(OC)c2)cc1F`, the GI50 is 0.0408 µM and the TGI is over 100 µM.

`N=Nc1c(OC(=O)Nc2cccc(Cl)c2)[nH]c2ccccc12` yielded a TGI of 44.5 µM.

The test system of the next assay is HOP-92 NSCLC. Put plainly: NCI-60 cell line screen, 48 h.
Take `CCCCCCCC(=O)SCC/C=C/[C@@H]1CC(=O)NCc2cc(ccn2)C2=N[C@@](C)(CS2)C(=O)N[C@@H](C(C)C)C(=O)O1`: the GI50 was 0.0268 µM and the TGI was 0.214 µM.

With `CSc1nc(NC2OCC(OC(C)=O)C(OC(C)=O)C2OC(C)=O)c(N=CC=Nc2c(NC3OCC(OC(C)=O)C(OC(C)=O)C3OC(C)=O)nc(SC)[nH]c2=O)c(=O)[nH]1` (centres undefined), the TGI is over 100 µM.

`COc1cc(OC)cc(-c2cc(=O)c3c(OC)c(OC)c(OC)c(OC)c3o2)c1` returned a TGI of 90.8 µM.

`O=C1OC(O)[C@@H]2[C@H]1[C@H]1CC[C@@H]2O1` (some centres undefined): the GI50 is 20.3 µM and the TGI is over 69.9 µM.

`COC(=O)C1=C(C)NC(C)=C(C(=O)OCCCN2CCC(c3ccccc3)(c3ccccc3)CC2)C1c1cccc([N+](=O)[O-])c1` (centres undefined) registered a TGI of 4.26 µM.

Consider `COc1ccc([C@H]2[C@@H](F)C(=O)N2c2cc(OC)c(OC)c(OC)c2)cc1F`, for which the GI50 is 0.266 µM and the TGI worked out at 63.9 µM.

Compound `N=Nc1c(OC(=O)Nc2cccc(Cl)c2)[nH]c2ccccc12` showed a TGI of 18.1 µM.

A further assay deals with OVCAR-4 ovarian. Put plainly: NCI-60 cell line screen, 48 h.
In the case of `CCCCCCCC(=O)SCC/C=C/[C@@H]1CC(=O)NCc2cc(ccn2)C2=N[C@@](C)(CS2)C(=O)N[C@@H](C(C)C)C(=O)O1`, the GI50 is 0.0535 µM and the TGI is over 33.3 µM.

With `CSc1nc(NC2OCC(OC(C)=O)C(OC(C)=O)C2OC(C)=O)c(N=CC=Nc2c(NC3OCC(OC(C)=O)C(OC(C)=O)C3OC(C)=O)nc(SC)[nH]c2=O)c(=O)[nH]1` (centres undefined), the TGI was over 100 µM.

`COc1cc(OC)cc(-c2cc(=O)c3c(OC)c(OC)c(OC)c(OC)c3o2)c1` gave a TGI of over 100 µM.

For `O=C1OC(O)[C@@H]2[C@H]1[C@H]1CC[C@@H]2O1` (some centres undefined), the GI50 is over 100 µM and the TGI is over 100 µM.

The compound `COC(=O)C1=C(C)NC(C)=C(C(=O)OCCCN2CCC(c3ccccc3)(c3ccccc3)CC2)C1c1cccc([N+](=O)[O-])c1` (centres undefined) gave a TGI of 2.98 µM.

As for `COc1ccc([C@H]2[C@@H](F)C(=O)N2c2cc(OC)c(OC)c(OC)c2)cc1F`, the GI50 is 0.966 µM and the TGI is over 100 µM.

`N=Nc1c(OC(=O)Nc2cccc(Cl)c2)[nH]c2ccccc12`: the TGI amounted to 19.6 µM.

The next assay has as its system UO-31 renal. Put plainly: NCI-60 cell line screen, 48 h.
On to `CCCCCCCC(=O)SCC/C=C/[C@@H]1CC(=O)NCc2cc(ccn2)C2=N[C@@](C)(CS2)C(=O)N[C@@H](C(C)C)C(=O)O1`, for which the GI50 was 0.0264 µM and the TGI was 0.426 µM.

`CSc1nc(NC2OCC(OC(C)=O)C(OC(C)=O)C2OC(C)=O)c(N=CC=Nc2c(NC3OCC(OC(C)=O)C(OC(C)=O)C3OC(C)=O)nc(SC)[nH]c2=O)c(=O)[nH]1` (centres undefined) returned a TGI of over 100 µM.

Compound `COc1cc(OC)cc(-c2cc(=O)c3c(OC)c(OC)c(OC)c(OC)c3o2)c1` registered a TGI of over 100 µM.

In the case of `O=C1OC(O)[C@@H]2[C@H]1[C@H]1CC[C@@H]2O1` (some centres undefined), the GI50 is 66.6 µM and the TGI was over 100 µM.

The compound `COC(=O)C1=C(C)NC(C)=C(C(=O)OCCCN2CCC(c3ccccc3)(c3ccccc3)CC2)C1c1cccc([N+](=O)[O-])c1` (centres undefined) showed a TGI of 3.89 µM.

In the case of `COc1ccc([C@H]2[C@@H](F)C(=O)N2c2cc(OC)c(OC)c(OC)c2)cc1F`, the GI50 was 0.171 µM and the TGI was over 100 µM.

As for `N=Nc1c(OC(=O)Nc2cccc(Cl)c2)[nH]c2ccccc12`, the TGI amounted to 13.1 µM.

The subject of another assay is SNB-75 CNS. Put plainly: NCI-60 cell line screen, 48 h.
For the compound `CCCCCCCC(=O)SCC/C=C/[C@@H]1CC(=O)NCc2cc(ccn2)C2=N[C@@](C)(CS2)C(=O)N[C@@H](C(C)C)C(=O)O1`, the GI50 was 0.0079 µM and the TGI was over 33.3 µM.

Take `CSc1nc(NC2OCC(OC(C)=O)C(OC(C)=O)C2OC(C)=O)c(N=CC=Nc2c(NC3OCC(OC(C)=O)C(OC(C)=O)C3OC(C)=O)nc(SC)[nH]c2=O)c(=O)[nH]1` (centres undefined): the TGI amounted to 57.4 µM.

`COc1cc(OC)cc(-c2cc(=O)c3c(OC)c(OC)c(OC)c(OC)c3o2)c1` displayed a TGI of over 100 µM.

Regarding `O=C1OC(O)[C@@H]2[C@H]1[C@H]1CC[C@@H]2O1` (some centres undefined), the GI50 was 45.3 µM and the TGI was over 100 µM.

In turn, `COC(=O)C1=C(C)NC(C)=C(C(=O)OCCCN2CCC(c3ccccc3)(c3ccccc3)CC2)C1c1cccc([N+](=O)[O-])c1` (centres undefined) had a TGI of 9.84 µM.

`COc1ccc([C@H]2[C@@H](F)C(=O)N2c2cc(OC)c(OC)c(OC)c2)cc1F`: the GI50 is over 100 µM and the TGI was over 100 µM.

The values above are taken from PubChem BioAssay (NCI).
